Laboratory results taken from patent US8309557B2, “Pyrimidin-4-ylpropanedinitrile derivatives, processes for their preparation and their use as herbicides and plant growth regulators” (Bayer Intellectual Property GmbH, priority 2009, dated 2012).

Experiments:
Format in all cases: in vivo
Matricaria inodora = assay: Herbicidal effect post-emergence, MATIN
Method: (§1) Seeds of mono- and dicotyledonous weed plants and crop plants are planted in wood-fiber pots in sandy loam, covered with earth and grown in a greenhouse under good growth conditions. 2 to 3 weeks after sowing, the test plants are treated in the single-leaf stage. The compounds according to the invention, formulated in the form of wettable powders (WP) or as emulsion concentrates (EC), are then sprayed onto the green plant parts as aqueous suspension or emulsion using an application rate of 600 to 800 l of water/ha (converted) with the addition of 0.2% by weight of wetting agent. After the test plants had been in the greenhouse for ca. 3 weeks under optimum growth conditions, the effect of the preparations is scored visually in comparison with untreated controls (herbicidal effect in percent (%): 100% effect=plants have died off, 0% effect=as control plants).

Abutilon theophrasti [1] = assay: Herbicidal effect post-emergence, ABUTH
Method: as §1

Amaranthus retroflexus [2] = assay: Herbicidal effect pre-emergence, AMARE; conditions: 320 g/hectare, visual grading after 3 weeks vs untreated controls
Source text: (§2) Seeds of mono- and dicotyledonous weed plants and crop plants are planted in wood-fiber pots in sandy loam and covered with earth. The compounds according to the invention, formulated in the form of wettable powders (WP) or as emulsion concentrates (EC), are then applied to the surface of the covering earth as aqueous suspension or emulsion at an application rate corresponding to 320 g/hectare at an application rate of 600 to 800 l of water/ha (converted) with the addition of 0.2% wetting agent.
(§3) Following treatment, the pots are placed in a greenhouse and kept under good growth conditions for the test plants. The visual grading of the damage to the test plants is carried out after a test time of 3 weeks in comparison to untreated controls (herbicidal effect in percent (%): 100% effect=plants have died off, 0% effect=as control plants).

Veronica persica [3] = assay: Herbicidal effect post-emergence, VERPE
Method: as §1

Echinochloa crus-galli = assay: Herbicidal effect post-emergence, ECHCG
Method: as §1

Abutilon theophrasti [4] = assay: Herbicidal effect pre-emergence, ABUTH; conditions: 320 g/hectare, visual grading after 3 weeks vs untreated controls
Source text: as §2, §3

Veronica persica [5] = assay: Herbicidal effect pre-emergence, VERPE; conditions: 320 g/hectare, visual grading after 3 weeks vs untreated controls
Source text: as §2, §3

Amaranthus retroflexus [6] = assay: Herbicidal effect post-emergence, AMARE
Method: as §1

Viola tricolor [7] = assay: Herbicidal effect post-emergence, VIOTR
Method: as §1

Ipomoea purpurea = assay: Herbicidal effect post-emergence, PHBPU
Method: as §1

[8] = tested on: Tripleurospermum inodorum; assay: Herbicidal effect pre-emergence, MATIN; conditions: 320 g/hectare, visual grading after 3 weeks vs untreated controls
Source text: as §2, §3

Setaria viridis [9] = assay: Herbicidal effect pre-emergence, SETVI; conditions: 320 g/hectare, visual grading after 3 weeks vs untreated controls
Source text: as §2, §3

Stellaria media = assay: Herbicidal effect post-emergence, STEME
Method: as §1

Viola tricolor [10] = assay: Herbicidal effect pre-emergence, VIOTR; conditions: 320 g/hectare, visual grading after 3 weeks vs untreated controls
Source text: as §2, §3

Setaria viridis [11] = assay: Herbicidal effect post-emergence, SETVI
Method: as §1

[12] = tested on: Polygonum (Fallopia) convolvulus; assay: Herbicidal effect post-emergence, POLCO
Method: as §1

Alopecurus myosuroides = assay: Herbicidal effect pre-emergence, ALOMY; conditions: 320 g/hectare, visual grading after 3 weeks vs untreated controls
Source text: as §2, §3

Row | SMILES | Effect in % in respect of stated plant, MATIN (Matricaria inodora) [%] | Effect in % in respect of stated plant, ABUTH (Abutilon theophrasti [1]) [%] | Effect in % in respect of stated plant, AMARE (Amaranthus retroflexus [2]) [%] | Effect in % in respect of stated plant, VERPE (Veronica persica [3]) [%] | Effect in % in respect of stated plant, ECHCG (Echinochloa crus-galli) [%] | Effect in % in respect of stated plant, ABUTH (Abutilon theophrasti [4]) [%] | Effect in % in respect of stated plant, VERPE (Veronica persica [5]) [%] | Effect in % in respect of stated plant, AMARE (Amaranthus retroflexus [6]) [%] | Effect in % in respect of stated plant, VIOTR (Viola tricolor [7]) [%] | Effect in % in respect of stated plant, PHBPU (Ipomoea purpurea) [%] | Effect in % in respect of stated plant, MATIN [8] [%] | Effect in % in respect of stated plant, SETVI (Setaria viridis [9]) [%] | Effect in % in respect of stated plant, STEME (Stellaria media) [%] | Effect in % in respect of stated plant, VIOTR (Viola tricolor [10]) [%] | Effect in % in respect of stated plant, SETVI (Setaria viridis [11]) [%] | Effect in % in respect of stated plant, POLCO [12] [%] | Effect in % in respect of stated plant, ALOMY (Alopecurus myosuroides) [%]
1 | Cc1ccc(-c2nc(N)c(Cl)c(C(C#N)C#N)n2)cc1.N [Compound 296] | 90 | 80 | 100 | 90 | 80 | 80 | 100 | 90 | – | – | – | – | – | – | – | – | –
2 | CNC.N#CC(C#N)c1nc(-c2ccc(Cl)cc2)nc(N)c1Cl [Compound 310] | 85 | 85 | 100 | 87 | 90 | – | 100 | 95 | 90 | 80 | 80 | 90 | 80 | 100 | 80 | 85 | –
3 | CN(C)C.N#CC(C#N)c1nc(-c2ccc(Cl)cc2)nc(N)c1Cl [Compound 311] | 90 | 90 | 100 | 90 | 90 | 80 | 100 | 90 | 80 | – | 90 | 90 | 80 | 100 | 80 | 90 | –
4 | C[N+](C)(C)C.N#C[C-](C#N)c1nc(-c2ccc(Cl)cc2)nc(N)c1Cl [Compound 312] | 90 | 85 | 95 | 95 | 85 | – | 100 | 90 | 80 | – | – | 90 | 80 | 100 | 90 | 90 | –
5 | N.N#CC(C#N)c1nc(-c2ccc(Cl)c(C(F)(F)F)c2)nc(N)c1Cl [Compound 335] | 80 | – | – | – | – | – | 100 | 80 | – | – | 80 | – | – | 80 | – | – | –
6 | N.N#CC(C#N)c1nc(-c2ccc(Cl)cc2F)nc(N)c1Cl [Compound 345] | 90 | – | 90 | 90 | – | 90 | 100 | 100 | 80 | 90 | 80 | 80 | 90 | 80 | – | 80 | 80
7 | Cc1ccc(-c2nc(N)c(Cl)c(C(C#N)C#N)n2)c(F)c1F.N [Compound 387] | – | 90 | – | 80 | 90 | – | 100 | 100 | – | – | – | – | – | – | – | 100 | 80
8 | CNc1nc(-c2ccc(Cl)cc2)nc(C(C#N)C#N)c1Cl [Ex. No. 41, [5-Chloro-2-(4-chlorophenyl)-6-(methylamino)pyrimidin-4-yl]propanedinitrile] | – | – | – | – | – | – | – | – | – | – | 80 | – | – | 100 | – | – | –
9 | N#C[C-](C#N)c1nc(-c2ccc(Cl)cc2)nc(N)c1Cl.[Na+] [Ex. No. 304, Sodium [6-amino-5-chloro-2-(4-chlorophenyl)pyrimidin-4-yl](dicyano)methanide] | 90 | 80 | 90 | – | – | – | 100 | 100 | 80 | – | 80 | 80 | 80 | – | – | 80 | –
10 | Cc1ccc(-c2nc(N)c(Cl)c(C(C#N)C#N)n2)cc1 [compound 12] | 80 | 80 | 100 | 90 | 80 | 80 | 100 | 90 | – | – | – | – | – | – | – | 80 | –
11 | N#CC(C#N)c1nc(-c2ccc(Cl)cc2F)nc(N)c1Cl [compound 110] | 90 | – | 100 | 90 | 80 | – | 100 | 90 | 90 | 80 | – | 80 | 90 | 90 | 80 | 95 | –
12 | N#CC(C#N)c1nc(-c2ccc(Br)cc2F)nc(N)c1Cl [compound 208] | 100 | 90 | 80 | 90 | – | 100 | 100 | 100 | 90 | 80 | – | 90 | 90 | – | – | 80 | –
13 | CC(C)c1nc(N)c(Cl)c(C(C#N)C#N)n1 [compound 265] | 90 | 80 | – | 90 | – | – | – | 100 | – | 100 | – | – | 90 | – | – | 90 | –
